# Measured values reported in patent US20100227841A1, “Patient populations and treatment methods” (Harbor BioSciencs, Inc., priority 2008, published 2010).
# Tested on: female NOD mice
# Assay: Spontaneous autoimmune diabetes in non-obese diabetic (NOD) mouse model
# Format: in vivo
# Excerpt: Treatment of spontaneous autoimmune diabetes in non-obese diabetic (NOD) mouse model. The NOD model is used as an animal model for human type 1 diabetes. The NOD mouse strain spontaneously develops autoimmune (type 1) diabetes by a process that has similarities to human type 1 diabetes mellitus, e.g., immune-mediated selective destruction of the pancreatic islet 13-cells that produce insulin (M. A. Atkinson and N. K. Maclaren, New England J. Medicine, 331:1428-1436 1994). There is a higher incidence of diabetes (i.e., hyperglycemia, glucosuria, and hypoinsulinemia) in female vs. male NOD mice (80-90% vs. 10-20%, respectively). Disease incidence in this animal model is first observed at approximately 12 to 15 weeks of age with maximum incidence usually peaking 5 to 6 weeks later.
# Methods. An oral formulation containing 17α-ethynylandrost-5-ene-3β,7β,17β-triol in 30% w/v β-cyclodextrin sulfobutyl ether sodium salt (Captisol®; CyDex, Inc., Overland Park, Kans.) was used. Six-week old female NOD mice (approximately 20-25 grams) were purchased from The Jackson Laboratories (Bar Harbor, Me.) and housed in a vivarium under pathogen-free conditions. The animals were acclimated for at least one week prior to initiation of oral dosing with 17α-ethynylandrost-5-ene-3β,7β,17β-triol. Animals were randomized into 5 per cage upon receipt and cages were subsequently randomized into dosing groups.
# Female NOD mice were treated once daily with vehicle, 17α-ethynylandrost-5-ene-3β,7β,17β-triol (20 or 80 mg/kg in 100 μL, p.o.), or dexamethasone (0.25 mg/kg, 100 μL, i.p.) from 15 to 25 weeks of age (i.e., before the first incidence of diabetes; at the University of Catania), from 13 to 19 weeks of age (2 days after the first incidence of diabetes), or from 12 to 26 weeks of age (9 days after the first incidence of diabetes). Blood glucose was monitored using glucometers (ENCORE Glucometer, Bayer Corp., Elkhart, Ind.) at weekly intervals, beginning at 10 weeks of age. Mice with blood glucose levels 200 mg/dL on two consecutive occasions were considered diabetic. The percentage of animals with diabetes over the course of the experiment was monitored.
# Histological assessment of insulitis and functional 13-cell content was assessed at the time of disease diagnosis or at the end of the 26-week study (i.e., disease-free mice). Pancreata (after CO2 euthanasia) were immediately isolated and placed in 10% buffered formalin at room temperature overnight, and then embedded in paraffin. After de-paraffinizing, pancreas samples were rehydrated and 5 μm sections were prepared and fixed on glass slides. Some sections were stained with hematoxylin and eosin (H&E) while others were stained with anti-insulin antibody as follows; prepared sections were immersed in Tris-Buffered Saline (TBS: 10 mM Tris buffer, pH 7.4, 0.15 M NaCl) containing 1% of bovine serum albumin (BSA) and 5% normal goat serum for 2 h at room temperature followed by incubation with 2 μg/mL rat anti-insulin IgG2a monoclonal antibody (MAB1417; R&D Systems, Minneapolis, Minn.) in TBS/1% BSA overnight at 4° C. in a humidified chamber. After washing with TBS/0.5 Tween-20, sections were covered with biotinylated anti-rat IgG secondary antibody (BD biosciences, 1:1,000) for 1 h at room temperature, followed by washing with TBS/Tween-20 and incubation with streptavidin-horseradish peroxidase for 30 min. Sections were then incubated with chromogen substrate, DAB (BD Biosciences), for 5 min and counterstained with hematoxylin. The degree of insulitis (leukocyte infiltration per islet; H&E) and functional 13-cell content per islet (insulin production) was scored using a scale of 0 to 3 in which 0=none, 1=few, 2=moderate, 3=high content of inflammatory cells or functional β-cells. Pancreata that were scored were obtained from a randomly-selected portion of mice from each cohort and scores were reported as the mean±SEM for each cohort.
# [1] = dexamethasone 0.25 mg/kg i.p. once daily
# [2] = dexamethasone 0.25 mg/kg i.p. once daily, scale of 0 to 3
smiles,measurement,setting,value
"C[C@@H]1C[C@H]2[C@@H]3CCC4=CC(=O)C=C[C@]4(C)[C@@]3(F)[C@@H](O)C[C@]2(C)[C@@]1(O)C(=O)CO [dexamethasone, reference compound]",Disease Incidence,[1],0.20 ± 0.20
same,No. Islets/pancreas (H&E),[1],8.2 ± 6.3
same,Insulitis Score/Islet (H&E),[2],2.0 ± 0.6
same,β-Cell Score/Islet (Insulin),[2],2.3 ± 0.3
same,first incidence of diabetes,"week 19, once daily treatment from 15 to 25 weeks of age (vehicle 25%)",0%
